Read-outs that look alike come from different tables or passages of the source. Where a SMILES comes first, the peptide text is derived from it. [ ]: non-standard residue; d: D form.
What was measured:
A. baumannii [1] = assay: microbe, parasite or virus in culture; format: cell-based, Acinetobacter baumannii
In short: (§1)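 MIC read-out = lowest peptide level with no bacterial proliferation. Strains diluted in MH medium to 2×10^6 CFU; peptide twofold serial dilutions in MH added 1:1 in microtiter wells.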

MDRAB 12035 [2] = assay: microbe, parasite or virus in culture; format: cell-based, Acinetobacter baumannii
In short: as §1

MDRPA 2002 = format: cell-based, Pseudomonas aeruginosa
In short: as §1

MDRPA 2003 = format: cell-based, Pseudomonas aeruginosa
In short: as §1

[3] = tested on: multi-drug resistant bacteria; assay: MIC, summary statements for multi-drug resistant bacteria; format: cell-based
Description: For the antibacterial activity, a minimal inhibitory concentration (MIC) of a peptide in which fungus bodies were not split in an MH medium with sufficient nutrients was measured.
Specifically, the strains described in the following [Table 2] were purchased and diluted with an MH medium such that the number of bacteria was 2×10^6 colony-forming units (CFUs), 100 μl of each of the diluted strains was aliquoted into a 96-well microtiter plate, and then 100 μl of a peptide solution diluted with the MH medium (solution diluted stepwise at 2: 1) was added to each well.

A. baumannii [4] = assay: MIC of antibiotic during combined treatment with antimicrobial peptide; format: cell-based, Acinetobacter baumannii; conditions: for Antibiotic MIC, Erythromycin / Antibiotic MIC, Linezolid / Antibiotic MIC, Vancomycin: A. baumannii
In short: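 First, antibiotic solution is diluted with MH medium; next, the dilution is dispensed into wells containing peptide; finally, the orientation is swapped and MIC of each mixture determined.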

B. subtilis = assay: microbe, parasite or virus in culture; format: cell-based, Bacillus subtilis
In short: as §1

E. coli = format: cell-based, Escherichia coli; conditions: E. coli
In short: (§2)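 Broth microdilution in MH medium; strains were diluted to 2×10^6 CFU per ml before plating. Peptide was serially diluted stepwise at 2:1 starting from its MIC, and MH-diluted antibiotic was then added to determine MIC. The reversed arrangement was also tested.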

MDREC 1229 = format: cell-based, Escherichia coli
In short: as §2

MDRAB 12035 [5] = assay: MIC of antibiotic during combined treatment with antimicrobial peptide; format: cell-based, Acinetobacter baumannii
In short: as §2

[6] = combined with peptide at 1 μg/ml
[7] = combined with peptide at 2 μg/ml
[8] = combined with peptide at 4 μg/ml
[9] = combined with peptide at 6 μg/ml
[10] = combined with peptide at 8 μg/ml
[11] = combined with peptide at 16 μg/ml
[12] = combined with peptide at 32 μg/ml
[13] = combined with peptide at 64 μg/ml
[14] = peptide treatment concentration 1 μg/ml
[15] = peptide treatment concentration 2 μg/ml
[16] = peptide treatment concentration 4 μg/ml
[17] = peptide treatment concentration 6 μg/ml
[18] = peptide treatment concentration 8 μg/ml
[19] = peptide treatment concentration 16 μg/ml
[20] = peptide treatment concentration 32 μg/ml
[21] = peptide treatment concentration 64 μg/ml

CC[C@H](C)[C@H](NC(=O)[C@H](CCCCN)NC(=O)[C@H](Cc1c[nH]c2ccccc12)NC(=O)[C@@H](N)CCCNC(=N)N)C(=O)N[C@@H](Cc1ccccc1)C(=O)N[C@@H](CCCCN)C(=O)N[C@@H](CCCCN)C(=O)N[C@H](C(=O)N[C@H](CCCCN)C(=O)N[C@@H](CCCCN)C(=O)N[C@@H](CC(C)C)C(=O)N[C@@H](CC(C)C)C(=O)N[C@@H](Cc1c[nH]cn1)C(=O)N[C@@H](CCC(=O)O)C(=O)N[C@@H](Cc1ccccc1)C(=O)N[C@@H](CCCCN)C(=O)N[C@@H](CCCCN)C(=O)N[C@@H](Cc1ccccc1)C(N)=O)[C@@H](C)CC [PapMA-19, RWK IFK KIk KLL HEF KKF-NH2] (H-RWKIFKKI[dK]KLLHEFKKF-NH2; N-terminus assumed)
32 µg/mL: Minimal inhibitory concentration MIC (MDRAB 12035 [2]) | Peptide MIC, peptide alone (MDRAB 12035 [2]) | Antibiotic MIC, Erythromycin (A. baumannii [4]; [6]) | Antibiotic MIC, Vancomycin (A. baumannii [4]; [8]) | Erythromycin MIC during combined treatment with peptide (MDRAB 12035 [5]; [14]) | Vancomycin MIC during combined treatment with peptide (MDRAB 12035 [5]; [17])
16 µg/mL: Minimal inhibitory concentration MIC (A. baumannii [1]) | Peptide MIC, peptide alone (A. baumannii [1]) | Antibiotic MIC, Erythromycin (A. baumannii [4]; [7]) | Antibiotic MIC, Linezolid (A. baumannii [4]; [8]) | Erythromycin MIC during combined treatment with peptide (MDRAB 12035 [5]; [15]) | Linezolid MIC during combined treatment with peptide (MDRAB 12035 [5]; [17]) | Vancomycin MIC during combined treatment with peptide (MDRAB 12035 [5]; [18])
0 µg/mL: Antibiotic MIC, Erythromycin (A. baumannii [4]; [11]) | Antibiotic MIC, Linezolid (A. baumannii [4]; [11]) | Antibiotic MIC, Vancomycin (A. baumannii [4]; [11]) | Antibiotic MIC, Erythromycin (A. baumannii [4]; [12]) | Antibiotic MIC, Linezolid (A. baumannii [4]; [12]) | Antibiotic MIC, Vancomycin (A. baumannii [4]; [12]) | Antibiotic MIC, Erythromycin (A. baumannii [4]; [13]) | Antibiotic MIC, Linezolid (A. baumannii [4]; [13]) | Antibiotic MIC, Vancomycin (A. baumannii [4]; [13]) | Peptide MIC (E. coli; with Erythromycin […] (Conc./MIC 1)) | Peptide MIC (E. coli; with Linezolid […] (Conc./MIC 1)) | Peptide MIC (E. coli; with Vancomycin 1024 μg/ml (Conc./MIC 1)) | Peptide MIC during treatment with antibiotic (MDREC 1229; erythromycin […] (Conc./MIC 1)) | Peptide MIC during treatment with antibiotic (MDREC 1229; linezolid 512 μg/ml (Conc./MIC 1)) | Erythromycin MIC during combined treatment with peptide (MDRAB 12035 [5]; [20]) | Linezolid MIC during combined treatment with peptide (MDRAB 12035 [5]; [20]) | Vancomycin MIC during combined treatment with peptide (MDRAB 12035 [5]; [20]) | Erythromycin MIC during combined treatment with peptide (MDRAB 12035 [5]; [21]) | Linezolid MIC during combined treatment with peptide (MDRAB 12035 [5]; [21]) | Vancomycin MIC during combined treatment with peptide (MDRAB 12035 [5]; [21])
128 µg/mL: Antibiotic MIC, Vancomycin (A. baumannii [4]; [7]) | Linezolid MIC during combined treatment with peptide (MDRAB 12035 [5]; [15]) | Vancomycin MIC during combined treatment with peptide (MDRAB 12035 [5]; [15])
0.5 µg/mL: Erythromycin MIC during combined treatment with peptide (MDRAB 12035 [5]; [18])
0.25 µg/mL: Antibiotic MIC, Erythromycin (A. baumannii [4]; [10])
2 µg/mL: Antibiotic MIC, Erythromycin (A. baumannii [4]; [9]) | Peptide MIC during treatment with antibiotic (MDREC 1229; erythromycin 32 μg/ml (Conc./MIC 1/8)) | Peptide MIC during treatment with antibiotic (MDREC 1229; erythromycin 64 μg/ml (Conc./MIC 1/4)) | Peptide MIC during treatment with antibiotic (MDREC 1229; linezolid […] (Conc./MIC 1/4)) | Peptide MIC during treatment with antibiotic (MDREC 1229; vancomycin 512 μg/ml (Conc./MIC 1/2)) | Erythromycin MIC during combined treatment with peptide (MDRAB 12035 [5]; [17])
>128 µg/mL: Antibiotic MIC, Linezolid (A. baumannii [4]; [6]) | Antibiotic MIC, Vancomycin (A. baumannii [4]; [6]) | Minimal inhibitory concentration MIC (B. subtilis) | Linezolid MIC during combined treatment with peptide (MDRAB 12035 [5]; [14]) | Vancomycin MIC during combined treatment with peptide (MDRAB 12035 [5]; [14])
twice to four times higher: Antibacterial activity relative to PapMA-1 [3]
8 µg/mL: Antibiotic MIC, Linezolid (A. baumannii [4]; [9]) | Antibiotic MIC, Vancomycin (A. baumannii [4]; [9]) | Erythromycin MIC during combined treatment with peptide (MDRAB 12035 [5]; [16]) | Linezolid MIC during combined treatment with peptide (MDRAB 12035 [5]; [18]) | Vancomycin MIC during combined treatment with peptide (MDRAB 12035 [5]; [19])
64 µg/mL: Minimal inhibitory concentration MIC (MDRPA 2002) | Minimal inhibitory concentration MIC (MDRPA 2003) | Antibiotic MIC, Linezolid (A. baumannii [4]; [7]) | Linezolid MIC during combined treatment with peptide (MDRAB 12035 [5]; [16]) | Vancomycin MIC during combined treatment with peptide (MDRAB 12035 [5]; [16])
0.125 µg/mL: Erythromycin MIC during combined treatment with peptide (MDRAB 12035 [5]; [19])
at least twice as high: Antibacterial activity relative to PapMA-1 (A. baumannii [1]; A. baumannii and S. typhimurium)
higher level than the PapMA-1 peptide: Synergistic effect of antibacterial activity with existing antibiotics compared with PapMA-1 (A. baumannii [4]; A. baumannii and MDRAB 12035)
4 µg/mL: Antibiotic MIC, Erythromycin (A. baumannii [4]; [8]) | Antibiotic MIC, Linezolid (A. baumannii [4]; [10]) | Antibiotic MIC, Vancomycin (A. baumannii [4]; [10]) | Peptide MIC during treatment with antibiotic (MDREC 1229; linezolid 64 μg/ml (Conc./MIC 1/8)) | Peptide MIC during treatment with antibiotic (MDREC 1229; vancomycin […] (Conc./MIC 1/4)) | Peptide MIC during treatment with antibiotic (MDREC 1229; vancomycin […] (Conc./MIC 1/8)) | Linezolid MIC during combined treatment with peptide (MDRAB 12035 [5]; [19])
1 µg/mL: Peptide MIC during treatment with antibiotic (MDREC 1229; erythromycin […] (Conc./MIC 1/2)) | Peptide MIC during treatment with antibiotic (MDREC 1229; linezolid […] (Conc./MIC 1/2)) | Peptide MIC during treatment with antibiotic (MDREC 1229; vancomycin 1024 μg/ml (Conc./MIC 1))

From patent publication US11214594B2, “Antimicrobial peptide having synergistic antibacterial effect with antibiotics on multidrug resistant bacteria, and use thereof” (priority 2016, dated 2022)
